Patent US9604981B2, “IP receptor agonist heterocyclic compounds” (Novartis AG, priority 2013, dated 2017)

Molecular target: T1, IP receptor (Homo sapiens, UniProt P43119)
T1 construct: expressed in transfected cells; host or cells: CHO cells (CHO-IP)
Assay: cAMP accumulation in CHO cells stably expressing the IP receptor (AlphaScreen)
Assay type: cell-based
Settings: 1 hour at room temperature
Protocol: Activity of compounds at the IP receptor (IP receptor) is assessed by measuring cAMP accumulation in CHO cells stably expressing the IP receptor (CHO-IP) using the PerkinElmer AlphaScreen assay. This technology measures the endogenous production of cAMP, in a non-radioactive luminescence proximity homogenous assay. A biological reaction occurs between streptavidin coated donor beads, biotinylated cAMP and anti-cAMP acceptor beads, bringing the donor and acceptor beads close enough together so that upon excitation a fluorescence signal is produced. On production of endogenous cAMP, competition between the biotinylated cAMP and cellular-derived cAMP causes a reduction in the fluorescent signal. The reduction in signal is proportional to the amount of cAMP being produced, thus it is possible to quantify the amount of cAMP being produced on stimulation with agonist.
Test and reference compounds are prepared at 100× [final] in 100% DMSO, and diluted 1:3 using a Biomek Fx (Beckman Coulter). This is followed by an intermediate dilution to give 5× [final] in assay buffer (HBSS containing 5 mM HEPES, 0.1% (w/v) BSA). […] The assay plate is then incubated at room temperature in the dark, for 60 minutes with gentle shaking, and read on the Envision plate reader (Perkin Elmer). […]

T1 sequence (P43119 whole entry): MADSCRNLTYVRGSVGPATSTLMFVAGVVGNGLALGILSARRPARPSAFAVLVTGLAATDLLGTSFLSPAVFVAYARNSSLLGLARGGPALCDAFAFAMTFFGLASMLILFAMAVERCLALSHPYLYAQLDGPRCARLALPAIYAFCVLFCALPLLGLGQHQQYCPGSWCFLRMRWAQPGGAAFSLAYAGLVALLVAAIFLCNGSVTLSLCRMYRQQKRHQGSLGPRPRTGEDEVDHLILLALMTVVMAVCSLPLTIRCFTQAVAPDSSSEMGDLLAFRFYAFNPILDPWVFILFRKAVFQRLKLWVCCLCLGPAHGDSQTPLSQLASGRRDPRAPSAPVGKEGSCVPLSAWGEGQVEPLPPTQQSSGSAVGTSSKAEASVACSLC

## Cc1ccc(-c2cc3c(nc2-c2ccc(C)cc2)CCCN3CCCCCCC(=O)O)cc1 [Example 1, 7-(6,7-Di-p-tolyl-3,4-dihydro-1,5-naphthyridin-1(2H)-yl)heptanoic acid]
  EC50: 0.455 nM
